Patent publication US20230255864A1, “NOVEL COMPOSITIONS COMBINING HEMP DERIVATIVES AND AT LEAST ONE PEPTIDE AND USE THEREOF” (FRANCE COSMEPHYL-LAB, priority 2020, published 2023)
Where “and” joins values, the source holds several entries; their conditions need not be identical. Identical values can stand only once.

Tested on: murine macrophages (RAW 267.4 cell line) stimulated with LPS from E. coli
Assay: In vitro anti-inflammatory test: inhibition of NO production in LPS-stimulated murine macrophages (Griess reaction)
Format: cell-based
Details: for Anti-inflammatory ratio: ratio between anti-inflammatory activity and toxicity (IC50 NO release and IC50 cell viability)
Excerpt: Low-grade inflammation is strongly implicated in degenerative processes in human skin such as photoaging and atopy. The reduction of low-intensity inflammatory reactions by topical products may be necessary in the event of cutaneous aggression, to obtain optimal healing and restore the physiological balance of human skin. In order to identify new anti-inflammatory candidates, an in vitro anti-inflammatory test was developed with a murine cell line: the murine macrophage test RAW 267.4. This test was used to monitor the inhibitory effects of chemical compounds or natural extracts on the low-intensity inflammatory cascade leading to overproduction of nitrogen oxide (NO) in the endothelial wall of blood vessels.
The study was carried out to evaluate the ability of cannabidiol, palmitoyl tripeptide-8 (active ingredient in Neutrazen™), and their mixture to inhibit the pro-inflammatory cascade leading to the production of NO in murine macrophages stimulated by liposaccharides (LPS).
The in vitro anti-inflammatory test is based on the ability of murine macrophages to generate a strong inflammatory response when stimulated by antigens such as LPS. Immobilized murine macrophages (RAW 267.4 cell line) are stimulated with LPS from E. coli and exposed for 24 hours. At the end of the incubation period, the production of NO is evaluated indirectly by measuring the accumulation of nitrite/nitrate, stable final products of the oxidation of NO, in the culture medium using a method spectrophotometric based on the Griess reaction.
MURINS RAW 267.4 Macrophage cell line (Sigma-Aldrich, No. P6110401, Lot. 091006), low number of passages (less than 50).
Complete medium: DMEM with stabilized L-glutamine (Dulbecco's Minimum Essential Medium, PAN BIOTECH. Lot 974251) supplemented with Penicillin 100 IU/ml and streptomycin 100 μg/m1 (PAN BIOTECH, Lot 225614), and 10% inactivated calf serum (PAN BIOTECH, Lot P460518), pH 7.2, freshly prepared, stored for less than 3 weeks.
Cannabidiol (CBD) is diluted in DMSO (10 mg/mL storage solution), and subjected to an ultrasonic bath for 20 minutes. The Neutrazen™ solution is diluted in PBS (Phosphate buffer saline, Sigma-Aldrich).
The negative control: DMSO 1% The positive control: Dexamethasone (Sigma-Aldrich) 1-5-10-50-100 μM.
RAW 267.4 murine macrophages were inoculated into 48-well tissue culture plates at a concentration of 1.10^5 cells/ml (200 μl/well) and incubated for 24 hours at 37° C. (5% CO2).
At the end of the incubation period, the culture medium was replaced with 200 μl of medium containing the appropriate concentrations of the material to be tested, and the cells were incubated at 37° C. (5% CO2) for one hour.
At the end of the incubation period, pro-inflammatory E. coli LPS was added to the cell cultures (1 μg/ml. Then the cells were incubated at 37° C. (5% CO2) for 24 hours.
The amount of NO released was measured in the culture supernatant by the Griess reaction. 100 μl of the supernatants were transferred into the wells of a 96-well tissue culture plate, and modified Griess reagent (SIGMA-ALDRICH) were added to each well. After a period of 15 min at room temperature, the Optical Density (OD) of each well was read at a wavelength of 540 nm by an Infinite M200 Pro fluorescence-luminescence reader (TECAN).
The concentrations of test material causing a 50% decrease in NO release (IC50 (NO release)) and a 50% decrease in cell viability (IC50 (cell viability)) respectively were calculated using TableCurve software Version 2.0.
The anti-inflammatory ratio corresponds to the ratio between anti-inflammatory activity and toxicity. It is expressed as follows: […]
Analysis of the anti-inflammatory activity and of the cell viability of the cannabidiol/palmitoyl tripeptide-8 (Neutrazen™) association in a mixture by isobologram analysis.

## C=C(C)[C@@H]1CCC(C)=C[C@H]1c1c(O)cc(CCCCC)cc1O [CBD]
CBD 0.01 weight % in mixture with NeutraZen 0.01%
  NO production (% as compared to the negative control): 94.48% and 98.73% and 100.63%
CBD 0.01 weight % in mixture with NeutraZen 0.025%
  NO production (% as compared to the negative control): 98.77% and 101.91% and 100.00%
CBD 0.01 weight % in mixture with NeutraZen 0.05%
  NO production (% as compared to the negative control): 100.00% and 103.82% and 103.16%
CBD 0.01 weight % in mixture with NeutraZen 0.1%
  NO production (% as compared to the negative control): 101.23% and 103.82% and 98.10%
CBD 0.025 weight % in mixture with NeutraZen 0.01%
  NO production (% as compared to the negative control): 87.12% and 89.17% and 92.41%
CBD 0.025 weight % in mixture with NeutraZen 0.025%
  NO production (% as compared to the negative control): 92.64% and 96.18% and 96.84%
CBD 0.025 weight % in mixture with NeutraZen 0.05%
  NO production (% as compared to the negative control): 93.87% and 100.00% and 98.10%
CBD 0.025 weight % in mixture with NeutraZen 0.1%
  NO production (% as compared to the negative control): 103.07% and 101.27% and 100.63%
CBD 0.05 weight % in mixture with NeutraZen 0.01%
  NO production (% as compared to the negative control): 84.66% and 85.99% and 88.61%
CBD 0.05 weight % in mixture with NeutraZen 0.025%
  NO production (% as compared to the negative control): 84.66% and 87.90% and 87.34%
CBD 0.05 weight % in mixture with NeutraZen 0.05%
  NO production (% as compared to the negative control): 84.05% and 86.62% and 87.97%
CBD 0.05 weight % in mixture with NeutraZen 0.1%
  NO production (% as compared to the negative control): 79.75% and 84.71% and 82.28%
CBD 0.1 weight % in mixture with NeutraZen 0.01%
  NO production (% as compared to the negative control): 80.37% and 77.07% and 85.44%
CBD 0.1 weight % in mixture with NeutraZen 0.025%
  NO production (% as compared to the negative control): 79.75% and 80.89% and 82.28%
CBD 0.1 weight % in mixture with NeutraZen 0.05%
  NO production (% as compared to the negative control): 79.75% and 79.62% and 83.54%
CBD 0.1 weight % in mixture with NeutraZen 0.1%
  NO production (% as compared to the negative control): 72.39% and 74.52% and 74.68%
CBD 0.25 weight % in mixture with NeutraZen 0.01%
  NO production (% as compared to the negative control): 53.37% and 61.15% and 60.76%
CBD 0.25 weight % in mixture with NeutraZen 0.025%
  NO production (% as compared to the negative control): 47.24% and 49.04% and 51.90%
CBD 0.25 weight % in mixture with NeutraZen 0.05%
  NO production (% as compared to the negative control): 47.24% and 52.87% and 47.47%
CBD 0.25 weight % in mixture with NeutraZen 0.1%
  NO production (% as compared to the negative control): 50.92% and 43.95% and 50.00%
CBD 0.5 weight % in mixture with NeutraZen 0.01%
  NO production (% as compared to the negative control): 0% and 0.63%
CBD 0.5 weight % in mixture with NeutraZen 0.025%
  NO production (% as compared to the negative control): 0%
CBD 0.5 weight % in mixture with NeutraZen 0.05%
  NO production (% as compared to the negative control): 0% and 4.46% and 1.27%
CBD 0.5 weight % in mixture with NeutraZen 0.1%
  NO production (% as compared to the negative control): 0% and 1.27%
CBD 1 weight % in mixture with NeutraZen 0.01%
  NO production (% as compared to the negative control): 0%
CBD 1 weight % in mixture with NeutraZen 0.025%
  NO production (% as compared to the negative control): 0%
CBD 1 weight % in mixture with NeutraZen 0.05%
  NO production (% as compared to the negative control): 0%
CBD 1 weight % in mixture with NeutraZen 0.1%
  NO production (% as compared to the negative control): 0%
CBD 2.5 weight % in mixture with NeutraZen 0.01%
  NO production (% as compared to the negative control): 0%
CBD 2.5 weight % in mixture with NeutraZen 0.025%
  NO production (% as compared to the negative control): 0%
CBD 2.5 weight % in mixture with NeutraZen 0.05%
  NO production (% as compared to the negative control): 0%
CBD 2.5 weight % in mixture with NeutraZen 0.1%
  NO production (% as compared to the negative control): 0%
non-linear regression of 3 series of experiments, weight %, for mixtures CBD concentration at the fixed Neutrazen concentration
  IC50-NO release: 0.319 ± 0.006%
  Anti-inflammatory ratio: <1
Listed as cannabidiol
  Anti-inflammatory ratio: less than 1
Sample alone at 0.01 weight %
  NO production (% as compared to the negative control): 99.39% and 100.64% and 102.53%
Sample alone at 0.025 weight %
  NO production (% as compared to the negative control): 96.93% and 97.45% and 98.10%
Sample alone at 0.05 weight %
  NO production (% as compared to the negative control): 97.55% and 89.17% and 93.04%
Sample alone at 0.1 weight %
  NO production (% as compared to the negative control): 95.09% and 99.36% and 99.37%
Sample alone at 0.25 weight %
  NO production (% as compared to the negative control): 77.91% and 80.25% and 81.65%
Sample alone at 0.5 weight %
  NO production (% as compared to the negative control): 2.45% and 5.10% and 2.53%
Sample alone at 1 weight %
  NO production (% as compared to the negative control): 0.61% and 1.91% and 1.90%
Sample alone at 2.5 weight %
  NO production (% as compared to the negative control): 0.00% and 2.55% and 1.27%
